According to patent US8207211B2, “Photosensitizers for targeted photodynamic therapy” (The General Hospital Corporation, priority 2005, dated 2012):

Columns and labels:
[1] = Octanol-water distribution coefficient; type: physicochemical; details: 1-octanol/DI water, absorbance at 330 nm
Method: Each compound was dissolved in a minimum amount of DMSO: CI1 (0.9 mg in 200 μl), CI2 (5.3 mg in 200 μl), CI3 (5.4 mg in 200 μl). Ten ml of DI water and 10 ml of 1-octanol were added in each compound and vigorously shaken for 2 min. and the vials of the compounds were settled down overnight. The phases were separated and UV-spectra of each phase were analyzed. Distribution coefficient of each compound was determined using absorbance of aqueous phases and organic phases at 330 nm.

S. aureus [2] = experiment: Photodynamic inactivation (PDI), CFU survival, 405-nm light (Example 8); type: cell-based, Staphylococcus aureus
Source text: (§1) Four microbial species were used in this study. Briefly, Escherichia coli was purchased from ATCC (ATCC #25922), Pseudomonas aeruginosa, two clinical isolates, were obtained; UCBP PA 14 from L. Rahme (Massachusetts General Hospital) and PA 767K from Kim Lewis (Tufts University), slime deficient mutant of Staphylococcus aureus was obtained from Gerald B Pier (Channing Laboratories). Yeast strain Candida albicans was purchased from ATCC (ATCC #18804). Exponential cultures obtained by reculturing stationary overnight cultures were used for all experiments. Bacteria were grown at 37° C. in BHI broth to a cell density of 10^8 cells per mL. C. albicans was grown 37° C. in YM medium to 10^7 cells/mL.
(§2) Six fullerene derivatives (NI1-3 and CI1-3) were evaluated. […] Concentration of fullerene derivatives used in the experiments varied between 1 and 100 μM.
Fullerene derivatives were mixed with microbial suspensions and incubated in the dark at room temperature for 10 minutes. Excess fullerenes were either washed out of, or left in, the suspensions before illumination. Aliquots of 100 μL were placed on three well hanging drop slides and illuminated with either a 405-nm laser (Nichia Chemical Industries) at an irradiance of 100 mW/cm^2, or with white light at room temperature. White light was 400-700 nm Gaussian distribution from LumaCare™ lamp with filtered liquid light guide, as described above.
During illumination, aliquots of 20 μL were taken to determine the colony-forming units. The contents of the wells were mixed before sampling. The aliquots were serially diluted 10-fold in PBS without Ca^++/Mg^++ to give dilutions of 10^−1−10^−6 times the original concentrations, and were streaked horizontally on square BHI agar plates. Plates were incubated at 37° C. overnight. Colonies were counted and survival fraction was determined as percent of survival compared to control. Microbial suspensions incubated with fullerene derivatives in DMSO in the absence of light and bacteria illuminated in the absence of fullerene derivatives were used as controls. […]

E. coli = experiment: as above; type: cell-based, Escherichia coli; details: 10-20 μM, 16 J/cm^2 of 405-nm light
Source text: as §1, §2
(§3) Fullerene derivatives were mixed with microbial suspensions and incubated in the dark at room temperature for 10 minutes. Excess fullerenes were either washed out of, or left in, the suspensions before illumination. […]
(§4) During illumination, aliquots of 20 μL were taken to determine the colony-forming units. […] Colonies were counted and survival fraction was determined as percent of survival compared to control. […]

P. aeruginosa [3] = experiment: as above; type: cell-based, Pseudomonas aeruginosa
Source text: as §1, §2, §3, §4

C. albicans = experiment: as above; type: cell-based, Candida albicans; details: 10-20 μM, 16 J/cm^2 of 405-nm light
Source text: as §1, §2, §3, §4

P. aeruginosa [4] = experiment: Photodynamic inactivation (PDI), CFU survival, white light (red light for TBO); type: cell-based, Pseudomonas aeruginosa; details: 10 μM, 10 min, white light up to 50 J/cm^2
Method: Staphylococcus aureus (ATCC #35556), Escherichia coli (ATCC #25922), and Pseudomonas aeruginosa (ATCC #BAA-47; PAO1) were cultured in brain-heart infusion (BHI) broth (Difco, BD Diagnosttic Systems, Sparks, Md.) at 37° C. in aerobic conditions in a shaker at 150 rpm. Candida albicans (ATCC #18804) is grown in YM broth (Difco). Exponential cultures obtained by reculturing stationary overnight precultures were used for experiments.
E. coli, P. aeruginosa, and S. aureus are grown in fresh medium for approximately 1 hr to a density of about 10^8 cells/ml; the OD values at 650 nm are 0.6, 0.8, and 0.8, respectively. C. albicans is grown for approximately 4 hr to an approximate density of 10^8 cells/ml, corresponding to an OD of 6 at 650 nm (measured at 10-fold dilution). Cells were used for experiments in the mid-log growth phase.
A noncoherent lamp with filtered liquid light guides, e.g., a LumaCare™ LC122 lamp (MBG Technologies, Inc., Newport Beach, Calif.) was used to provide illumination of PS. More specifically, for illumination of fullerenes, a broad-band white light band pass filter (400-700 nm) was used, whereas for TBO, a band pass filter at 620-650 nm was used. The lamp was adjusted to give a uniform spot of about 4 cm diameter with an irradiance of 200 mW/cm^2, as measured with a power meter, e.g., a model DMM 199 meter with 201 Standard head (Coherent, Santa Clara, Calif.).
Typically, derivatized fullerenes prepared as described above are dissolved in DMSO to provide stock solutions having final concentrations of about 5 mM. […] All stock solutions were stored in the dark at room temperature.
In some experiments, for example in studies described in Examples below, suspensions of S. aureus cells (10^8 per ml) were incubated with derivatized fullerenes such as NI-1-3 and CI1-3 at a concentration of 100 μM in PBS at room temperature for 10 min. In other experiments, the bacterial suspension was centrifuged (4000×g for 10 min) after incubation and resuspended in fresh PBS before illumination; the latter procedure was referred to herein as a “wash.” E. coli, P. aeruginosa, and C. albicans were used at concentrations of about 10^8 cells per ml.
Illumination was carried out from above on microbial cell suspensions in wells of a 24-well plate. Aliquots were removed at times corresponding to the delivery of calculated fluences of light, and were serially diluted in PBS and streaked on square BHI or YM agar plates according to the method of Jett et al. (Jett, B. D., Hatter, K. L., Huycke, M. M., and Gilmore, M. S. (1997). Simplified agar plate method for quantifying viable bacteria. Biotechniques 23, 648-650). Survival fractions were calculated with reference to cells incubated in PBS alone. Values on killing curves at 0 J/cm^2 represent the dark toxicity of the fullerenes or other PS tested. Control cells were treated with light and no PS and also analyzed for viability.

S. aureus [5] = experiment: as above; type: cell-based, Staphylococcus aureus; details: 1 μM

For `C[N+]1(C)Cc2c(c3c4ccc5c6ccc7c8ccc9c%10c%11c%12c(c2c2c3c3c4c5c4c6c7c5c8c9c%11c6c(c%122)c3c4c56)C2C[N+](C)(C)CC%102)C1` (stereo not drawn) [CI2], the “Kow (octanol-water partition constant)” value [1] was 1.28, the LogKow [1] was 0.11 and the “PDI of S. aureus” value (S. aureus [2]; 100 μM, 10 min, 405 nm light 0-200 J/cm^2) was “most potent”. For the same molecule, the “killing of S. aureus” value (S. aureus [2]; 1-μM, 8 J/cm^2, 405 nm light) was 6 logs, the “potency relative to the other fullerene derivatives” value (S. aureus [2]; S. aureus, 1 μM and 8 J/cm^2 versus 100 μM screen) was “approximately 1000 times” and the “killing of E. coli” value (E. coli) was “high levels of killing”. The “killing of P. aeruginosa” value (P. aeruginosa [3]; 10-20 μM, 16 J/cm^2 of 405-nm light) was “high levels of killing”, the “effect of a wash on killing of P. aeruginosa” value (P. aeruginosa [3]; illumination with versus without a wash, 405 nm) was “more killing after a wash” and the “killing of C. albicans” value (C. albicans) was “high levels of killing”. For the same molecule, the “PDT activity against P. aeruginosa” value (P. aeruginosa [4]) was “effectively killed”, the “PDT activity against S. aureus” value (S. aureus [5]; 10 min, white light up to 50 J/cm^2) was “effectively killed” and the “light sufficient to kill 4-5 logs of S. aureus” value (S. aureus [5]; with a wash, white light) was 2 J/cm^2.
